Each structure is given as a SMILES string. The source made the active and inactive calls. No cut-off for these calls is given here.

Experiment [1] has as its system Musca domestica. In words: Insecticidal activity against Musca domestica (housefly) assessed as paralysis at 28 degC measured after 24 hr at 10 ug topically. In kind it is functional, organism-based.
Experiment [2] relates to Musca domestica. The experiment in a line: Insecticidal activity against Musca domestica (housefly) assessed as paralysis at 28 degC measured per fly after 24 hr. In kind it is functional.

For the compound `COc1ccc(O[Si](C)(C)C(C)(C)C)cc1[C@H]1OC[C@]2(O[Si](C)(C)C(C)(C)C)C(Oc3c(OC)cccc3OC)OC[C@H]12` (mixture of isomers), in the experiment on Musca domestica [1], the outcome was inactive.
As to `CCCCOc1ccc(OC)c([C@H]2OC[C@]3(O)[C@@H](Oc4c(OC)cccc4OC)OC[C@H]23)c1` (racemic), the LD50 with Musca domestica [2] was 8 µg.
Take `COCCOCCOc1ccc(OC)c([C@H]2OC[C@]3(O)[C@@H](Oc4c(OC)cccc4OC)OC[C@H]23)c1` (racemic): in the experiment with Musca domestica [1], the result was Active.
The same measure, in the same setting: the same measure for `COCCOc1ccc(OC)c([C@H]2OC[C@]3(O)[C@@H](Oc4c(OC)cccc4OC)OC[C@H]23)c1` (racemic): “Active”; for `COCCOc1ccc(OC)c([C@H]2OC[C@]3(O)[C@H](Oc4c(OC)cccc4OC)OC[C@H]23)c1` (racemic): “inactive”.
On the same count and under the same terms, in the case of `COc1ccc(O)cc1[C@H]1OC[C@]2(O)[C@H](Oc3c(OC)cccc3OC)OC[C@H]12` (racemic) it was “inactive”; in that of `COc1ccc(O)cc1[C@H]1OC[C@]2(O[Si](C)(C)C(C)(C)C)[C@@H](Oc3c(OC)cccc3OC)OC[C@H]12` (racemic), “inactive”; in that of `COc1ccc(OCc2ccc3c(c2)OCO3)cc1[C@H]1OC[C@]2(O)[C@@H](Oc3c(OC)cccc3OC)OC[C@H]12` (racemic), “inactive”.

Source of the values: ChEMBL document CHEMBL3044759, “Synthesis and Insecticidal Activity of Lignan Analogs. (1)” (1991).
